Data published in patent US4362746A (priority 1981, dated 1982).
Structures can show the parent of a compound that is named as a salt. Where two headings read alike, the source gives them in different places.

Tests used:
[1] = tested on: Influenza A2 /MTL/68; experiment: In vitro anti-myxovirus assay, inhibition of hemadsorption, Influenza A2/MTL/68 in G-2 cells; format: cell-based, Influenza A2 /Montreal/68; conditions: for inhibition at 50 µg/mL: 50 ug/ml; for inhibition at 5 µg/mL: 5 ug/ml; for inhibition at 10 µg/mL: 10 ug/ml; for inhibition at 25 µg/mL: 25 ug/ml; for inhibition at 33 µg/mL: 33 ug/ml
[2] = tested on: Influenza A2 /Aichi/2/68; experiment: In vitro anti-myxovirus assay, inhibition of hemadsorption, Influenza A2/Aichi/2/68 in G-2 cells; format: cell-based; conditions: for inhibition at 50 µg/mL: 50 ug/ml; for inhibition at 60 µg/mL: 60 ug/ml; for inhibition at 70 µg/mL: 70 ug/ml; for inhibition at 80 µg/mL: 80 ug/ml; for inhibition at 90 µg/mL: 90 ug/ml; for inhibition at 100 µg/mL: 100 ug/ml
[3] = tested on: Influenza A/Swine/1976/31; experiment: microbe, parasite or virus in culture; format: cell-based; conditions: in Sus scrofa
[4] = tested on: influenza virus A2 /Aichi/2/68; format: in vivo, mice (Charles River, random bred white, female); conditions: for Mean Survival Time / Survival % / Survival N (surviving animals / total infected) / Mean Survival Time Increase: 16 days; for Mean Survival Time Increase: vs virus only; for antiviral effect against influenza virus infection: administered intraperitoneally
[5] = in vitro; conditions: human, g-2 cells; for MNTC: Cytotoxicity CTD0, maximal non-toxic concentration; for CC50: Cytotoxicity CTD50
[6] = tested on: G-2 cells; conditions: maximal non-toxic concentration; G-2 cells; hydrochloride
[7] = Acute toxicity in mice; conditions: mouse, in vivo
[8] = tested on: mice; experiment: Acute toxicity in mice; conditions: after 24 hours
[9] = Subacute toxicity in mice; conditions: mouse, in vivo
[10] = tested on: mice; experiment: Subacute toxicity in mice; conditions: once a day, seventeenth day of treatment
[11] = Exp. 1, virus dose 4.1 LD50, 75 mg/kg/day IP
[12] = Exp. 2, virus dose 2.0 LD50, 75 mg/kg/day IP
[13] = Exp. 3, virus dose 2.6 LD50, 75 mg/kg/day IP
[14] = Exp. 4, virus dose 3.0 LD50, 75 mg/kg/day IP
[15] = Exp. 1, virus dose 4.1 LD50, 25 mg/kg/day IP

Compound `NC12CC3CC(CC(C3)C1)C2` [AMANTADINE HYDROCHLORIDE, reference compound] has an inhibition at 50 µg/mL ([1]; 316 TCID50) of 0%, an inhibition at 60 µg/mL ([1]; 316 TCID50, 60 ug/ml) of 0% and an inhibition at 70 µg/mL ([1]; 316 TCID50, 70 ug/ml) of 16%. For the same compound, the inhibition at 80 µg/mL ([1]; 316 TCID50, 80 ug/ml) was 42%, the inhibition at 90 µg/mL ([1]; 316 TCID50, 90 ug/ml) was 46% and the inhibition at 100 µg/mL ([1]; 316 TCID50, 100 ug/ml) was 54%. It also gave an inhibition at 50 µg/mL ([2]; 52 TCID50) of 0%, an inhibition at 60 µg/mL ([2]; 52 TCID50) of 53% and an inhibition at 70 µg/mL ([2]; 52 TCID50) of 83%. For the same compound, the inhibition at 80 µg/mL ([2]; 52 TCID50) was 70%, the inhibition at 90 µg/mL ([2]; 52 TCID50) was 97% and the inhibition at 100 µg/mL ([2]; 52 TCID50) was 87%. The inhibition at 50 µg/mL ([2]; 100 TCID50) was 0%, the inhibition at 60 µg/mL ([2]; 100 TCID50) was 0% and the inhibition at 70 µg/mL ([2]; 100 TCID50) was 33%. For the same compound, the inhibition at 80 µg/mL ([2]; 100 TCID50) was 27%, the inhibition at 90 µg/mL ([2]; 100 TCID50) was 67% and the inhibition at 100 µg/mL ([2]; 100 TCID50) was 43%. The inhibition at 30 µg/mL ([3]; 178 TCID50, 30 ug/ml) was 0%, the inhibition at 40 µg/mL ([3]; 178 TCID50, 40 ug/ml) was 17% and the inhibition at 50 µg/mL ([3]; 178 TCID50, 50 ug/ml) was 80%. It also gave an inhibition at 60 µg/mL ([3]; 178 TCID50, 60 ug/ml) of 90%, an inhibition at 70 µg/mL ([3]; 178 TCID50, 70 ug/ml) of 93% and an inhibition at 80 µg/mL ([3]; 178 TCID50, 80 ug/ml) of 100%. It also gave an inhibition at 90 µg/mL ([3]; 178 TCID50, 90 ug/ml) of 100%, an inhibition at 100 µg/mL ([3]; 178 TCID50, 100 ug/ml) of 100% and an inhibition at 30 µg/mL ([3]; 316 TCID50, 30 ug/ml) of 0%. For the same compound, the inhibition at 40 µg/mL ([3]; 316 TCID50, 40 ug/ml) was 10%, the inhibition at 50 µg/mL ([3]; 316 TCID50, 50 ug/ml) was 67% and the inhibition at 70 µg/mL ([3]; 316 TCID50, 70 ug/ml) was 97%. It also gave an inhibition at 80 µg/mL ([3]; 316 TCID50, 80 ug/ml) of 100%, an inhibition at 90 µg/mL ([3]; 316 TCID50, 90 ug/ml) of 100% and an inhibition at 100 µg/mL ([3]; 316 TCID50, 100 ug/ml) of 100%. For the same compound, the “Mean Survival Time” value [4, 11] was 14.1 days, the Survival % [4, 11] was 55% and the “Survival N (surviving animals / total infected)” value [4, 11] was 11/20. For the same compound, the “Mean Survival Time Increase” value [4, 11] was “+1.9 Days”, the “Mean Survival Time” value [4, 12] was 15.3 days and the Survival % [4, 12] was 80%. For the same compound, the “Survival N (surviving animals / total infected)” value [4, 12] was 16/20, the “Mean Survival Time Increase” value [4, 12] was “+2.9 Days” and the “Mean Survival Time” value [4, 13] was 15.1 days. For the same compound, the Survival % [4, 13] was 80%, the “Survival N (surviving animals / total infected)” value [4, 13] was 16/20 and the “Mean Survival Time Increase” value [4, 13] was “+4.0 Days”. For the same compound, the “Mean Survival Time” value [4, 14] was 15.0 days, the Survival % [4, 14] was 79% and the “Survival N (surviving animals / total infected)” value [4, 14] was 15/19. For the same compound, the “Mean Survival Time Increase” value [4, 14] was “+3.7 Days”, the “antiviral effect against influenza virus infection” value [4] was “significant antiviral effect” and the MNTC [5] was 100 µg/mL. For the same compound, the CC50 [5] was greater than 100 µg/mL.

With `CN(C)C[C@@H]1C[C@H]2C[C@@H]1c1ccccc12` (relative stereo) [Compound A, endo-2-dimethylaminomethyl-1,2,3,4-tetrahydro-1,4-methanonaphthalene hydrochloride] the inhibition at 5 µg/mL ([1]; 32 TCID50) was 0%, the inhibition at 10 µg/mL ([1]; 32 TCID50) was 23% and the inhibition at 25 µg/mL ([1]; 32 TCID50) was 76%. It also gave an inhibition at 33 µg/mL ([1]; 32 TCID50) of 78%, an inhibition at 50 µg/mL ([1]; 32 TCID50) of 97% and an inhibition at 5 µg/mL ([1]; 316 TCID50) of 0%. For the same compound, the inhibition at 10 µg/mL ([1]; 316 TCID50) was 0%, the inhibition at 25 µg/mL ([1]; 316 TCID50) was 27% and the inhibition at 33 µg/mL ([1]; 316 TCID50) was 52%. It also gave an inhibition at 50 µg/mL ([1]; 316 TCID50) of 53%, an inhibition at 5 µg/mL ([3]; 56 TCID50, 5 ug/ml) of 0% and an inhibition at 10 µg/mL ([3]; 56 TCID50, 10 ug/ml) of 37%. It also gave an inhibition at 25 µg/mL ([3]; 56 TCID50, 25 ug/ml) of 85%, an inhibition at 33 µg/mL ([3]; 56 TCID50, 33 ug/ml) of 82% and an inhibition at 50 µg/mL ([3]; 56 TCID50, 50 ug/ml) of 97%. The inhibition at 75 µg/mL ([3]; 56 TCID50, 75 ug/ml) was 100%, the inhibition at 5 µg/mL ([3]; 562 TCID50, 5 ug/ml) was 0% and the inhibition at 10 µg/mL ([3]; 562 TCID50, 10 ug/ml) was 0%. For the same compound, the inhibition at 25 µg/mL ([3]; 562 TCID50, 25 ug/ml) was 0%, the inhibition at 33 µg/mL ([3]; 562 TCID50, 33 ug/ml) was 37% and the inhibition at 50 µg/mL ([3]; 562 TCID50, 50 ug/ml) was 72%. For the same compound, the inhibition at 75 µg/mL ([3]; 562 TCID50, 75 ug/ml) was 73%, the “Mean Survival Time” value [4, 15] was 12.7 days and the Survival % [4, 15] was 30%. For the same compound, the “Survival N (surviving animals / total infected)” value [4, 15] was 6/20, the “Mean Survival Time Increase” value [4, 15] was “+0.5 Days” and the “antiviral effect against influenza virus infection” value [4] was “significant antiviral effect”. For the same compound, the “Cytotoxicity CTD0” value [6] was 50 µg/mL, the MNTC [5] was 75 µg/mL and the CC50 [5] was 100 µg/mL. It also gave an LD50 at 24 h ([7]; ip) of 160 mg/kg, an NOAEL at 24 h ([7]; ip) of 25 mg/kg/day and an LD50 at 24 h ([7]; po) greater than 750 mg/kg. The NOAEL at 24 h ([7]; po) was 200 mg/kg/day, the “Acute LD0 (non-lethal dose)” value ([8]; IP) was 75 mg/kg/day and the “Acute LD0 (non-lethal dose)” value ([8]; PO) was greater than 750 mg/kg/day. For the same compound, the LD50 at 408 h ([9]; ip) was 125 mg/kg, the NOAEL at 408 h ([9]; ip) was 25 mg/kg/day and the LD50 at 408 h ([9]; po) was greater than 750 mg/kg. The NOAEL at 408 h ([9]; po) was 300 mg/kg/day, the “Subacute LD0 (non-lethal dose)” value ([10]; IP) was 75 mg/kg/day and the “Subacute LD0 (non-lethal dose)” value ([10]; PO) was greater than 750 mg/kg/day.
